In ChEMBL document CHEMBL1201862, “PubChem BioAssay data set” (2004):
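Values below derive from 48-hour exposures of cells grown in 96-well plates, with endpoints linearly interpolated between the two concentrations bracketing the appropriate inhibition level. GI50 is the concentration that inhibits growth by half.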 The source made the active and inactive calls. Cut-off read from the data, not from the text of the source: active = GI50 up to about 1.1 µM and inactive = higher.

Experiments:
Experiment in all cases: inhibition of tumour cell growth, NCI panel, 48 h
[1] = system: SK-OV-3
[2] = system: UACC-62
[3] = system: SNB-19
[4] = system: OVCAR-8
[5] = system: UACC-257
[6] = system: HOP-62
[7] = system: HOP-92
[8] = system: MCF7
[9] = system: ACHN
[10] = system: SN12C
[11] = system: OVCAR-3
[12] = system: A498
[13] = system: NCI-H460
[14] = system: MDA-MB-435
[15] = system: DU-145
[16] = system: HL-60
[17] = system: RPMI-8226
[18] = system: HT-29
[19] = system: M14
[20] = system: K562

Measured: GI50

CN1CCN(C2CC(=O)c3c(Cl)sc(Cl)c32)CC1 (centres undefined)
inactive: [1] > 54.6 µM | [2] 16.3 µM | [3] 30.7 µM | [4] 7.66 µM | [5] 27.1 µM | [6] 19 µM | [7] 10.4 µM | [8] 4.99 µM | [9] 18.5 µM | [10] 13.2 µM | [11] 16.3 µM | [12] 43.2 µM | [13] 30.6 µM | [14] 7.05 µM | [15] 12.6 µM | [16] 19.9 µM | [17] 4.36 µM | [18] 11.4 µM | [19] 6.82 µM | [20] 4.06 µM

COC(=O)/C=C\C(C#N)(C#N)/N=C/c1cccc(OC)c1
inactive: [1] 25.3 µM | [2] 15.2 µM | [3] 23.3 µM | [4] 3.13 µM | [5] 14 µM | [6] > 42.7 µM | [7] 2.3 µM | [8] 4.94 µM | [9] 2.61 µM | [10] 11.9 µM | [11] 11.5 µM | [12] 18.6 µM | [13] 20 µM | [14] 6.5 µM | [15] 14.5 µM | [16] > 100 µM | [17] 2.71 µM | [18] 3.77 µM | [19] 4.12 µM | [20] 11.1 µM

Cc1ccc(/C=N\NC(=O)c2ccncc2)s1
inactive: [1] > 100 µM | [2] > 100 µM | [3] > 100 µM | [4] > 100 µM | [5] > 100 µM | [6] > 100 µM | [7] > 100 µM | [8] > 100 µM | [9] > 100 µM | [10] > 100 µM | [11] > 100 µM | [12] > 100 µM | [13] > 100 µM | [14] > 100 µM | [15] > 100 µM | [16] > 100 µM | [17] > 100 µM | [18] > 100 µM | [19] > 100 µM | [20] > 100 µM

CCCCNc1nc(NC2OCC(OC(C)=O)C(OC(C)=O)C2OC(C)=O)c(N=O)c(=O)n1C (centres undefined)
inactive: [1] > 10 µM | [2] > 10 µM | [3] > 10 µM | [4] > 10 µM | [5] > 10 µM | [6] > 10 µM | [7] > 10 µM | [8] > 10 µM | [9] > 10 µM | [10] > 10 µM | [11] > 10 µM | [12] > 10 µM | [13] > 10 µM | [14] > 10 µM | [15] > 10 µM | [16] > 10 µM | [17] > 10 µM | [18] > 10 µM | [19] > 10 µM

N=C(N)SCCON1C(=O)c2ccccc2C1=O
inactive: [1] > 100 µM | [2] > 100 µM | [3] > 100 µM | [4] > 100 µM | [5] > 100 µM | [6] > 100 µM | [7] > 100 µM | [8] > 100 µM | [9] > 100 µM | [10] > 100 µM | [11] > 100 µM | [12] > 100 µM | [13] > 100 µM | [14] > 100 µM | [15] > 100 µM | [16] > 100 µM | [17] > 100 µM | [18] > 100 µM | [19] > 100 µM | [20] > 100 µM
